In patent US12162867B2, “Inhibitors of RNA helicase DHX9 and uses thereof” (ACCENT THERAPEUTICS, INC., priority 2022, dated 2024):

The molecules below were run on circBRIP1 in HCT116 cells (assay: DHX9 circBRIP1 cellular target engagement SYBR Green assay (qPCR)). Details: Homo sapiens, HCT-116, circBRIP1, HCT116 cells; SyBr assay (marked ^+); read-out: DHX9 Cellular Target Engagement EC50.
Type: cell-based

First: CS(=O)(=O)Nc1cc(Cl)cc(NC(=O)c2cnn(-c3ncc(F)cc3OCc3cccc(C#N)c3)c2)c1 [Example 203]
Second: CS(=O)(=O)Nc1cc(Cl)cc(NC(=O)c2cnn(-c3c(F)cccc3OCc3cccc(F)c3)c2)c1 [Example 211]
The EC50 of the first is 1.8-fold higher: 341 nM for the first, 189 nM for the second. The second is the more potent here.

First: CS(=O)(=O)Nc1cc(Cl)cc(NC(=O)c2cnn(-c3ncccc3OCc3nccs3)c2)c1 [Example 205]
Second: CS(=O)(=O)Nc1cc(Cl)cc(NC(=O)c2cnn(-c3ncccc3OCc3ncc[nH]3)c2)c1 [Example 252]
The EC50 of the first is 2.1-fold lower: 841 nM for the first, 1790 nM for the second.

First: CS(=O)(=O)Nc1cc(Cl)cc(NC(=O)c2cnn(-c3ncccc3OCc3cn[nH]c3)c2)c1 [Example 206]
Second: CS(=O)(=O)Nc1cc(Cl)cc(NC(=O)c2cnn(-c3ncccc3OCc3ccn[nH]3)c2)c1 [Example 253]
The EC50 of the first is 8.7-fold lower: 1060 nM for the first, 9230 nM for the second.

Compared with Cc1cc(C(=O)Nc2cc(Cl)cc(NS(C)(=O)=O)c2)cn1-c1ncc(F)cn1 [Example 207], CS(=O)(=O)Nc1cc(Cl)cc(NC(=O)c2cc(C(F)(F)F)n(-c3ccc(F)cn3)c2)c1 [Example 267] is 4.4-fold higher in EC50: 508 nM for the first, 2260 nM for the second. The first is the more potent here.

First: CS(=O)(=O)Nc1cc(Cl)cc(NC(=O)c2cc3ccccn3c2)c1 [Example 209]
Second: CS(=O)(=O)Nc1cc(Cl)cc(NC(=O)c2cc3cccnn3c2)c1 [Example 292]
The EC50 of the first is 1.5-fold higher: 3460 nM for the first, 2300 nM for the second.

First: CSc1ccc(-n2cc(C(=O)Nc3cc(Cl)cc(NS(C)(=O)=O)c3)cn2)nc1 [Example 218]
Second: CSc1cccnc1-n1cc(C(=O)Nc2cc(Cl)cc(NS(C)(=O)=O)c2)cn1 [Example 219]
The EC50 of the first is 5.2-fold higher: 1390 nM for the first, 265 nM for the second.

Compared with CS(=O)(=O)Nc1cc(Cl)cc(NC(=O)c2cc(-c3ncccc3NC(=O)C3CC3)cs2)c1 [Example 220], CN(C)C(=O)c1cccnc1-c1csc(C(=O)Nc2cc(Cl)cc(NS(C)(=O)=O)c2)c1 [Example 222] is 1.5-fold lower in EC50: 303 nM for the first, 200 nM for the second. The second is the more potent here.

Compared with CN(C)C(=O)Cc1cccnc1-c1csc(C(=O)Nc2cc(Cl)cc(NS(C)(=O)=O)c2)c1 [Example 221], CS(=O)(=O)Nc1cc(Cl)cc(NC(=O)c2cc(-c3ncccc3C(F)(F)F)cs2)c1 [Example 223] is 3.5-fold higher in EC50: 121 nM for the first, 421 nM for the second.

Compared with CCS(=O)(=O)Nc1cc(Cl)cc(NC(=O)c2cc(-c3ncc(F)cc3C)cs2)c1 [Example 226], Cc1cncc2cc(C(=O)Nc3cc(Cl)cc(NS(C)(=O)=O)c3)sc12 [Example 290] is higher in EC50: 388 nM for the first, over 10000 nM for the second. The first is the more potent here.

CS(=O)(=O)Nc1cc(Cl)cc(NC(=O)c2cc3ccncc3s2)c1 [Example 230] and CS(=O)(=O)Nc1cc(Cl)cc(NC(=O)c2cc3cnccc3s2)c1 [Example 288] are within 1.5-fold of each other in EC50: 7250 nM for the first, 7800 nM for the second.

Going from COCc1sc(C(=O)Nc2cc(Cl)cc(NS(C)(=O)=O)c2)cc1-c1ccccn1 [Example 234] to CS(=O)(=O)Nc1cc(Cl)cc(NC(=O)c2cc3ncccc3s2)c1 [Example 289], the EC50 rises from 1180 nM to 6550 nM (5.6-fold).

First: Cc1sc(C(=O)Nc2cc(Cl)cc(NS(C)(=O)=O)c2)cc1-c1cn(Cc2ccccc2)nn1 [Example 235]
Second: Cc1sc(C(=O)Nc2cc(Cl)cc(NS(C)(=O)=O)c2)cc1-c1cn(-c2ccccc2)nn1 [Example 236]
The EC50 of the first is 6.1-fold higher: 645 nM for the first, 106 nM for the second. The second is the more potent here.

CN(c1ncccn1)c1cccnc1-c1csc(C(=O)Nc2cc(Cl)cc(NS(C)(=O)=O)c2)c1 [Example 238] and CS(=O)(=O)Nc1cc(Cl)cc(NC(=O)c2cc(-c3ncccc3Oc3cccnc3)cs2)c1 [Example 239] are within 1.5-fold of each other in EC50: 289 nM for the first, 348 nM for the second.

Going from Cc1sc(C(=O)Nc2cc(Cl)cc(NS(C)(=O)=O)c2)cc1-c1c(F)cccc1OCc1ccccc1 [Example 240] to CS(=O)(=O)Nc1cc(Cl)cc(NC(=O)c2cc3c(F)cccc3s2)c1 [Example 296], the EC50 rises from 228 nM to 1140 nM (5-fold).

Compared with CS(=O)(=O)Nc1cc(Cl)cc(NC(=O)c2cc(Br)cs2)c1 [Example 241], CS(=O)(=O)Nc1cc(Cl)cc(NC(=O)c2cc(C3CCNCC3)cs2)c1 [Example 243] is higher in EC50: 3680 nM for the first, over 10000 nM for the second.

Going from COC(=O)[C@@H]1CCCN1c1csc(C(=O)Nc2cc(Cl)cc(NS(C)(=O)=O)c2)c1 [Example 242] to CS(=O)(=O)Nc1cc(Cl)cc(NC(=O)c2cc(N3CCNCC3)cs2)c1 [Example 244], the EC50 rises from 5020 nM to over 10000 nM.

CS(=O)(=O)Nc1cc(Cl)cc(NC(=O)c2cc(N3CCOCC3)cs2)c1 [Example 245] and CS(=O)(=O)Nc1cc(Cl)cc(NC(=O)c2cc(N3CCN(CC(F)(F)F)CC3)cs2)c1 [Example 246] are within 1.5-fold of each other in EC50: 4310 nM for the first, 3930 nM for the second.

Compared with Cc1cc(C(=O)Nc2cc(Cl)cc(NS(=O)(=O)C3CC3)c2)cn1-c1ccc(N2CCOCC2)cn1 [Example 247], CCS(=O)(=O)Nc1cc(Cl)cc(NC(=O)c2cc(C)n(-c3ccc(N4CCOCC4)cn3)c2)c1 [Example 249] is 76-fold lower in EC50: 2240 nM for the first, 29.5 nM for the second. The second is the more potent here.

Going from Cc1cc(C(=O)Nc2cc(Cl)cc(NS(=O)(=O)C(F)F)c2)cn1-c1ccc(N2CCOCC2)cn1 [Example 248] to CS(=O)(=O)Nc1cc(Cl)cc(NC(=O)c2cc(C(F)(F)F)n(-c3ccc(N4CCOCC4)cn3)c2)c1 [Example 271], the EC50 falls from over 10000 nM to 761 nM. The second is the more potent here.

CS(=O)(=O)Nc1cc(Cl)cc(NC(=O)c2cnn(C3CC4CCC(C3)O4)c2)c1 (centres unmarked) [Example 250] and CS(=O)(=O)Nc1cc(Cl)cc(NC(=O)c2cnn(C3CCCC3)c2)c1 [Example 309] are within 1.5-fold of each other in EC50: 3550 nM for the first, 3730 nM for the second.

CS(=O)(=O)Nc1cc(Cl)cc(NC(=O)c2cnn(-c3ncccc3OCc3c[nH]cn3)c2)c1 [Example 254] and CS(=O)(=O)Nc1cc(Cl)cc(NC(=O)c2cnn(-c3ncccc3COc3cncc(F)c3)c2)c1 [Example 262] are within 1.5-fold of each other in EC50: 578 nM for the first, 439 nM for the second.

First: CS(=O)(=O)Nc1cc(Cl)cc(NC(=O)c2cnn(-c3ccccc3-c3cncc(F)c3)c2)c1 [Example 257]
Second: CS(=O)(=O)Nc1cc(Cl)cc(NC(=O)c2cnn(-c3ccccc3Oc3cccc(F)c3)c2)c1 [Example 265]
The EC50 of the first is 1.8-fold lower: 2610 nM for the first, 4650 nM for the second.

CS(=O)(=O)Nc1cc(Cl)cc(NC(=O)c2cnn(-c3ncc(N4CC5(COC5)C4)cc3OCc3cc(F)cc(F)c3)c2)c1 [Example 258] and CS(=O)(=O)Nc1cc(Cl)cc(NC(=O)c2cc(-c3ccc(N4CC5(COC5)C4)cn3)n(CC(F)(F)F)c2)c1 [Example 278] are within 1.5-fold of each other in EC50: 291 nM for the first, 251 nM for the second.

Compared with Cc1cnc(-n2cc(C(=O)Nc3cc(Cl)cc(NS(C)(=O)=O)c3)cn2)c(OCc2cnco2)c1 [Example 261], Cn1cc(C(=O)Nc2cc(Cl)cc(NS(C)(=O)=O)c2)cc1-c1ncc(F)cc1OCc1cnco1 [Example 268] is 8.4-fold lower in EC50: 1530 nM for the first, 182 nM for the second. The second is the more potent here.

First: CS(=O)(=O)Nc1cc(Cl)cc(NC(=O)c2cnn(-c3ccccc3Oc3ncccn3)c2)c1 [Example 263]
Second: CS(=O)(=O)Nc1cc(Cl)cc(NC(=O)c2cnn(-c3ccccc3Oc3cccnc3)c2)c1 [Example 264]
The EC50 of the first is higher: over 10000 nM for the first, 3540 nM for the second.

Going from CN1CCC(c2ccc(-n3cc(C(=O)Nc4cc(Cl)cc(NS(C)(=O)=O)c4)cn3)nc2)CC1=O (centres unmarked) [Example 266] to CN1CCC(n2cc(C(=O)Nc3cc(Cl)cc(NS(C)(=O)=O)c3)cn2)CC1=O (centres unmarked) [Example 307], the EC50 rises from 1160 nM to over 10000 nM.

Cc1cc(C(=O)Nc2cc(Cl)cc(NS(C)(=O)=O)c2)cn1-c1ccc(N(C)C2CCOC2)cn1 (centres unmarked) [Example 269] and Cc1cc(C(=O)Nc2cc(Cl)cc(NS(C)(=O)=O)c2)cn1-c1ccc(N2CCOC(C)(C)C2)cn1 [Example 272] are within 1.5-fold of each other in EC50: 37 nM for the first, 31.1 nM for the second.

First: Cc1cc(C(=O)Nc2cc(Cl)cc(NS(C)(=O)=O)c2)cn1-c1ccc(N2CCCC2)cn1 [Example 270]
Second: Cc1cc(C(=O)Nc2cc(Cl)cc(NS(C)(=O)=O)c2)cn1-c1ccc(N2CCS(=O)(=O)CC2)cn1 [Example 285]
The EC50 of the first is 5-fold lower: 101 nM for the first, 503 nM for the second.

First: Cn1cc(C(=O)Nc2cc(Cl)cc(NS(C)(=O)=O)c2)cc1-c1ccc(N2CCOCC2)cn1 [Example 273]
Second: CCn1cc(C(=O)Nc2cc(Cl)cc(NS(C)(=O)=O)c2)cc1-c1ccc(N2CCOCC2)cn1 [Example 274]
The EC50 of the first is 2.6-fold lower: 37.5 nM for the first, 97.9 nM for the second.

First: CS(=O)(=O)Nc1cc(Cl)cc(NC(=O)c2cc(-c3ccc(N4CCOCC4)cn3)n(CC(F)(F)F)c2)c1 [Example 275]
Second: CS(=O)(=O)Nc1cc(Cl)cc(NC(=O)c2cc3c(C(F)(F)F)cccn3c2)c1 [Example 302]
The EC50 of the first is 10-fold lower: 190 nM for the first, 1930 nM for the second.

Compared with Cc1cc(C(=O)Nc2cc(Cl)cc(NS(C)(=O)=O)c2)cn1C1CCCC1 [Example 282], Cc1cccc2cc(C(=O)Nc3cc(Cl)cc(NS(C)(=O)=O)c3)cn12 [Example 304] is 3.2-fold higher in EC50: 1880 nM for the first, 5980 nM for the second.

CS(=O)(=O)Nc1cc(Cl)cc(NC(=O)c2cc3ccc(Cl)cc3s2)c1 [Example 293] and CS(=O)(=O)Nc1cc(Cl)cc(NC(=O)c2cc3cc(Cl)ccc3s2)c1 [Example 298] cannot be ordered by EC50: over 10000 nM for the first, over 10000 nM for the second.

CS(=O)(=O)Nc1cc(Cl)cc(NC(=O)c2cc3ccc(F)cc3s2)c1 [Example 294] and CS(=O)(=O)Nc1cc(Cl)cc(NC(=O)c2cc3cc(F)ccc3s2)c1 [Example 295] cannot be ordered by EC50: over 10000 nM for the first, over 10000 nM for the second.

CS(=O)(=O)Nc1cc(Cl)cc(NC(=O)c2cc3cccc(F)c3s2)c1 [Example 297] and COc1cccc2cc(C(=O)Nc3cc(Cl)cc(NS(C)(=O)=O)c3)sc12 [Example 303] cannot be ordered by EC50: over 10000 nM for the first, over 10000 nM for the second.

Compared with CS(=O)(=O)Nc1cc(Cl)cc(NC(=O)c2cc3ccc(Cl)cn3c2)c1 [Example 299], Cc1ccc2cc(C(=O)Nc3cc(Cl)cc(NS(C)(=O)=O)c3)cn2c1 [Example 300] is lower in EC50: over 10000 nM for the first, 3940 nM for the second. The second is the more potent here.

CS(=O)(=O)Nc1cc(Cl)cc(NC(=O)c2cc3c(=O)[nH]ccn3c2)c1 [Example 301] and CS(=O)(=O)Nc1cc(Cl)cc(NC(=O)c2cc3c(F)cccn3c2)c1 [Example 305] are within 1.5-fold of each other in EC50: 2410 nM for the first, 3330 nM for the second.

Going from CS(=O)(=O)Nc1cc(Cl)cc(NC(=O)c2cnn(CCc3ccccc3)c2)c1 [Example 308] to CN1CC2(CC(n3cc(C(=O)Nc4cc(Cl)cc(NS(C)(=O)=O)c4)cn3)C2)C1 [Example 311], the EC50 falls from over 10000 nM to 3980 nM.

First: CC(=O)NC1CC2(C1)CC(n1cc(C(=O)Nc3cc(Cl)cc(NS(C)(=O)=O)c3)cn1)C2 (centres unmarked) [Example 310]
Second: CS(=O)(=O)Nc1cc(Cl)cc(NC(=O)c2cnn(C3CC4(C3)CN(CC(F)(F)F)C4)c2)c1 [Example 312]
The EC50 of the first is higher: over 10000 nM for the first, 9970 nM for the second.

Same assay, conditions: circBRIP1, HCT116 cells; SyBr assay (marked ^+); read-out: DHX9 Cellular Target Engagement EC50

CCc1sc(C(=O)Nc2cc(Cl)cc(NS(C)(=O)=O)c2)cc1-c1ccccn1 [Example 232] showed an EC50 of 61 nM.
